We go through one substance from article PMC9781827, “Isolation and Identification of Anti-Inflammatory Peptide from Goose Blood Hydrolysate to Ameliorate LPS-Mediated Inflammation and Oxidative Stress in RAW264.7 Macrophages” (Molecules, 2022).

Several values for one entry are separate records, joined by “and”; a condition that tells them apart may be missing. Equal entries are not always repeated.

What all share (type): cell-based
One data set has as its system TNF-α. The data set can be described thus: TNF-α level by ELISA in culture medium, model of LPS-mediated RAW264.7 macrophage inflammation. The following applies: LPS group: LPS (1.0 μg/mL) alone, 24 h; mean ± S.D., n = 3. As for the experimental part: (§1) The anti-inflammatory activity of the peptides was determined according to the methods of a previous study. The anti-inflammatory activity of different fractions was evaluated by measuring the levels of the inflammatory cytokines (TNF-α, IL-1β and IL-6) in a model of LPS-induced macrophage inflammation with ELISA kits (Jiangsu Enzyme marker Biotechnology Co., Ltd., Yancheng, China). […] A 20 mmol/L Tris-HCl (pH 8.0) solution was used as the start buffer and 20 mmol/L Tris-HCl/1 mol/L NaCl (pH 8.0) was used as elution buffer. Elution program: (1) wash with 5 column volumes of starting buffer; (2) elute with 10 column volumes of 50% elution buffer and 50% start buffer; (3) elute with 5 column volumes of 100% elution buffer. The above flow rates were 5 mL/min. The fractions were detected at 280 nm by an ultraviolet detector and collected by an automatic fraction collector.
(§2) The method of RAW264.7 macrophage culture and treatments were based on the study of Li et al.. […] Macrophages from passages 5 to 10 were selected to seed on 96-well culture plates at a density of 4 × 10^5 cells/well and cultured with different concentrations of LPS (0.5 μg/mL, 1.0 μg/mL and 2.0 μg/mL) for 24 h. The optimal concentration of LPS for inducing inflammation in the RAW264.7 macrophage was ensured according to cell viability. […] The ability of GBP to protect RAW264.7 macrophages was evaluated. […]
A general note: In an ELISA, binding on a coated surface is turned into a signal by an enzyme label.

Another data set has as its system RAW264.7 macrophages. The experiment in a line: Viability / cytotoxicity of RAW264.7 macrophages. The following applies: for viability of RAW264.7 macrophages: 3.0 μg/mL LPS, mean ± S.D., repeated three times. As for the experimental part:
The method of RAW264.7 macrophage culture and treatments were based on the study of Li et al.. RAW264.7 macrophages (Lot number: BH0799, Chinese Academy of Sciences, Shanghai, China) were grown in DMEM-F medium (1:1) containing 3.15 g/L glucose, 0.365 g/L l-glutamine, 3.57 g/L HEPES, 10% FBS and 1% antibiotics at 37 °C in an atmosphere with 5% CO2 and 90% relative humidity. […] The optimal concentration of LPS for inducing inflammation in the RAW264.7 macrophage was ensured according to cell viability. Furthermore, RAW264.7 macrophages were cultured with different concentrations of GBP (100 μg/mL, 200 μg/mL and 400 μg/mL) to evaluate the cytotoxicity of GBP as described above. The ability of GBP to protect RAW264.7 macrophages was evaluated. In the LPS + GBP group, the macrophages medium supplemented with 200 μg/mL GBP was incubated for 2 h. Then, the macrophages medium was substituted with a macrophages medium supplemented with 1.0 μg/mL LPS and incubated for 24 h. In the LPS group, standard macrophages medium incubated for 2 h. Then, the standard macrophages medium was substituted with macrophages medium supplemented with 1.0 μg/mL LPS and incubated for 24 h. In the CTRL group, standard macrophages medium incubated for 2 h, Then, the standard macrophages medium was replaced with a new one and incubated for 24 h. Finally, the macrophages medium and macrophages were collected for further analysis.

The test system of the next data set is IL-6. The data set can be described thus: IL-6 level by ELISA in culture medium, model of LPS-mediated RAW264.7 macrophage inflammation. Particulars: LPS group: LPS (1.0 μg/mL) alone, 24 h; mean ± S.D., n = 3. As for the experimental part:
as §1, §2

In the next data set the test system is Keap-1, NrF2, HO-1. The experiment in a line: Western blot of Keap-1, NrF2, HO-1 in RAW264.7 macrophages. The following applies: stimulation with LPS alone. As for the experimental part:
RAW264.7 macrophages were washed with cold PBS and homogenized with two small magnetic beads (2 mm) and 10× volume of RIPA buffer containing 1% protease inhibitors for 60 s. Then the supernatant was collected after centrifuging at 12,000× g for 10 min at 4 °C, which was the total protein solution. The concentration of protein in the total protein solution was measured by BCA kits. The protein concentration of the supernatant was diluted to 2.0 mg/mL and mixed with an equal volume of buffer (0.25 mol/L Tris-HCl buffer, pH 6.8, containing 4% SDS and 20% glycerol with 20 mmol/L 2-mercaptoethanol). The stacking gel and separating gel were made of 5% (w/v) and 10% (w/v) polyacrylamide, respectively. Electrophoresis was carried out at 80 V until the dye front reached the bottom of the stacking gel, and the gel was run at 120 V until the dye front reached the bottom of the separating gel (165-8001, Bio-Rad Mini-PROTEAN Tetra Electrophoresis System). The PVDF membrane was covered on the gel and transferred membrane at 300 mA for 30 min. The membrane was moved into a decolorization shaker with 5% skim milk (0.5% TBST) and blocked for 1 h at room temperature. […] The film was scanned and archived, processed and decolorized by Photoshop, and the optical density value of the target band was analysed by ImageJ software processing system.
Background: In western blotting, separated proteins are transferred to a membrane and probed.

A further data set deals with IL-1β. The data set can be described thus: IL-1β level by ELISA in culture medium, model of LPS-mediated RAW264.7 macrophage inflammation. The following applies: LPS group: LPS (1.0 μg/mL) alone, 24 h; mean ± S.D., n = 3. As for the experimental part: as §1, §2

On to lipopolysaccharide [LPS], for which the “level of TNF-α” value in the data set with TNF-α was 271.35 ± 17.35 pg/mL and 273.77 ± 11.93 pg/mL. The “viability of RAW264.7 macrophages” value in the data set on RAW264.7 macrophages (24 h, Figure 1A) is on record as “approximately 51.51 ± 4.29%”. The “viability of RAW264.7 macrophages” value in the data set on RAW264.7 macrophages (LPS group of Figure 1C (CTRL 100 ± 7.35%)) is 51.57 ± 7.07%. In addition, the “LPS concentration resulting in 50% RAW264.7 macrophages death” value in the data set with RAW264.7 macrophages (24 h, estimated from viability at 3.0 μg/mL) is “around 3.0 μg/mL”. In addition, in the data set on IL-6, the “level of IL-6” value is on record as 373.01 ± 12.49 pg/mL. Also, in the data set with Keap-1, NrF2, HO-1, the “protein expression level of Keap-1” value is reported as “significantly increased”; the “protein expression levels of NrF2 and HO-1” value was “decreased”. Moreover, the “level of IL-1β” value with IL-1β was 485.75 ± 50.29 pg/mL.
